Source: BindingDB's records for patent US11566007 (Revolution Medicines, 2023)

What follows are molecules tested against GTPase KRas [G13C] (Homo sapiens, UniProt P01116, G13C) (assay: Biochemical Assay).
From the text: (§1) The purpose of this biochemical assay is to measure the ability of test compounds to covalently label nucleotide-loaded K-Ras isoforms. […] Analysis of raw data may be carried out using Waters MassLynx MS software, with % bound calculated from the deconvoluted protein peaks for labeled and unlabeled K-Ras.

Sequence of GTPase KRas [G13C] (P01116 whole entry G13C, canonical isoform): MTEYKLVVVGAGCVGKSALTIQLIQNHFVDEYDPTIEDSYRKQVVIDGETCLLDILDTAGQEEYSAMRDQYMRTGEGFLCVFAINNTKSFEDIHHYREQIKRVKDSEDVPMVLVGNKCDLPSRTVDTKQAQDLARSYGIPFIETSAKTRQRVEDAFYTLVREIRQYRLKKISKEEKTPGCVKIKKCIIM

| Structure (SMILES) | IC50 |
| --- | --- |
| CCn1c(-c2cnccc2COC)c2c3cc(ccc31)-c1cc(O)cc(c1)C[C@H](NC(=O)[C@H](C(C)C)N(C)C(=O)[C@H]1CCN(C(=O)/C=C/CN(C)C)C1)C(=O)N1CCC[C@H](N1)C(=O)OCC(C)(C)C2 [US11566007, Example A87] | in the range around 550 nM |
| C=CC(=O)N1CCN(C(=O)N(C)[C@H](C(=O)N[C@H]2Cc3cc(O)cc(c3)-c3ccc4c(c3)c(c(-c3ccccc3CCOC)n4CC)CC(C)(C)COC(=O)[C@@H]3CCCN(N3)C2=O)C(C)C)CC1 [US11566007, Example A18] | in the range around 550 nM |
| C=CC(=O)N1C[C@H](C)[C@H](C(=O)N(C)[C@H](C(=O)N[C@H]2Cc3cc(O)cc(c3)-c3ccc4c(c3)c(c(-c3ccccc3CCOC)n4CC)CC(C)(C)COC(=O)[C@@H]3CCCN(N3)C2=O)C(C)C)C1 [US11566007, Example A41] | in the range around 5500 nM |
| C=CC(=O)N1CCCN(C(=O)N(C)[C@H](C(=O)N[C@H]2Cc3cc(O)cc(c3)-c3ccc4c(c3)c(c(-c3ccccc3CCOC)n4CC)CC(C)(C)COC(=O)[C@@H]3CCCN(N3)C2=O)C(C)C)CC1 [US11566007, Example A13] | in the range around 550 nM |
| CCn1c(-c2ccccc2CN(C)C)c2c3cc(ccc31)-c1cc(O)cc(c1)C[C@H](NC(=O)[C@H](C(C)C)N(C)C(=O)c1ccc(NC(=O)/C=C/CN(C)C)cc1)C(=O)N1CCC[C@H](N1)C(=O)OCC(C)(C)C2 [US11566007, Example A49] | in the range around 550 nM |
| CCn1c(-c2ccccc2CN(C)C)c2c3cc(ccc31)-c1cc(O)cc(c1)C[C@H](NC(=O)[C@H](C(C)C)N(C)C(=O)c1ccc(NC(=O)/C=C/CN(C)C)cn1)C(=O)N1CCC[C@H](N1)C(=O)OCC(C)(C)C2 [US11566007, Example A46] | in the range around 55 nM |
| CCn1c(-c2cccnc2COC)c2c3cc(ccc31)-c1cc(O)cc(c1)C[C@H](NC(=O)[C@H](C(C)C)N(C)C(=O)C1CN(C(=O)C#CCN(C)C)C1)C(=O)N1CCC[C@H](N1)C(=O)OCC(C)(C)C2 [US11566007, Example A97] | < 10 nM |

What follows are molecules tested against GTPase KRas [G12C] (Homo sapiens, UniProt P01116, G12C) (assay: Biochemical Assay).
From the text: as §1

Sequence of GTPase KRas [G12C] (P01116 whole entry G12C): as the sequence (P01116 whole entry G13C, canonical isoform) above, with G12C, C13G counted along it

| Structure (SMILES) | IC50 |
| --- | --- |
| C=CC(=O)N1CC2(CCN([C@H](C(=O)N[C@H]3Cc4cc(O)cc(c4)-c4ccc5c(c4)c(c(-c4ccccc4CCOC)n5CC)CC(C)(C)COC(=O)[C@@H]4CCCN(N4)C3=O)C(C)C)C2=O)C1 [US11566007, Example A31] | in the range around 55 nM |
| C=CC(=O)N1CC[C@H](C(=O)N(C)[C@H](C(=O)N[C@H]2Cc3cc(O)cc(c3)-c3ccc4c(c3)c(c(-c3ccccc3CCOC)n4CC)CC(C)(C)COC(=O)[C@@H]3CCCN(N3)C2=O)C2CCOCC2)C1 [US11566007, Example A6] | in the range around 550 nM |
| C=CC(=O)N1CC[C@H](C(=O)N(C)[C@H](C(=O)N[C@H]2Cc3cc(N)cc(c3)-c3ccc4c(c3)c(c(-c3ccccc3COC)n4CC)CC(C)(C)COC(=O)[C@@H]3CCCN(N3)C2=O)C(C)C)C1 [US11566007, Example A42] | in the range around 550 nM |
| C=CC(=O)N1CC[C@H](C(=O)N(C)[C@H](C(=O)N[C@H]2Cc3cc(O)cc(c3)-c3ccc4c(c3)c(c(-c3cccnc3COCC)n4CC)CC(C)(C)COC(=O)[C@@H]3CCCN(N3)C2=O)C(C)C)C1 [US11566007, Example A44] | in the range around 55 nM |
| C=CC(=O)N1CC[C@H](C(=O)N(C)[C@H](C(=O)N[C@H]2Cc3cc(O)cc(c3)-c3ccc4c(c3)c(c(-c3cccnc3COC)n4C)CC(C)(C)COC(=O)[C@@H]3CCCN(N3)C2=O)C(C)C)C1 [US11566007, Example A66] | in the range around 550 nM |
| C=CC(=O)N1C[C@H](C)[C@H](C(=O)N(C)[C@H](C(=O)N[C@H]2Cc3cc(O)cc(c3)-c3ccc4c(c3)c(c(-c3ccccc3CN(C)C)n4CC)CC(C)(C)COC(=O)[C@@H]3CCCN(N3)C2=O)C2CCCC2)C1 [US11566007, Example A43] | in the range around 55 nM |
| C=CC(=O)N1CC[C@H](C(=O)N(C)[C@H](C(=O)N[C@H]2Cc3cc(O)cc(c3)-c3ccc4c(c3)c(c(-c3ccc(CN5CCCC5)cc3)n4CC)CC(C)(C)COC(=O)[C@@H]3CCCN(N3)C2=O)C(C)C)C1 [US11566007, Example A10] | in the range around 550 nM |
| C=CC(=O)N1CCC(F)(C(=O)N(C)[C@H](C(=O)N[C@H]2Cc3cc(O)cc(c3)-c3ccc4c(c3)c(c(-c3ccccc3CCOC)n4CC)CC(C)(C)COC(=O)[C@@H]3CCCN(N3)C2=O)C(C)C)CC1 [US11566007, Example A11] | in the range around 550 nM |
| C=CC(=O)N1CC[C@H](C(=O)N(C)[C@H](C(=O)N[C@H]2Cc3cc(O)cc(c3)-c3ccc4c(c3)c(c(-c3ccccc3OC)n4CC)CC(C)(C)COC(=O)[C@@H]3CCCN(N3)C2=O)C(C)C)C1 [US11566007, Example A17] | in the range around 550 nM |
| C=CC(=O)N1C[C@H](C)[C@H](C(=O)N(C)[C@H](C(=O)N[C@H]2Cc3cc(O)cc(c3)-c3ccc4c(c3)c(c(-c3cccnc3COC)n4CC)CC(C)(C)COC(=O)[C@@H]3CCCN(N3)C2=O)C(C)C)C1 [US11566007, Example A56] | in the range around 55 nM |
| C=CC(=O)N1CCC(C(=O)N(C)[C@H](C(=O)N[C@H]2Cc3cc(O)cc(c3)-c3ccc4c(c3)c(c(-c3ccccc3CCOC)n4CC)CC(C)(C)COC(=O)[C@@H]3CCCN(N3)C2=O)C(C)C)CC1 [US11566007, Example A14] | in the range around 550 nM |
| C=CC(=O)N1CC[C@H](C(=O)N(C)[C@H](C(=O)N[C@H]2Cc3cc(O)cc(c3)-c3ccc4c(c3)c(c(-c3ccc(C5CCN(C)CC5)cc3)n4CC)CC(C)(C)COC(=O)[C@@H]3CCCN(N3)C2=O)C(C)C)C1 [US11566007, Example A39] | in the range around 550 nM |
| C=CC(=O)N1CC[C@H](C(=O)N(C)[C@H](C(=O)N[C@H]2Cc3cc(O)cc(c3)-c3ccc4c(c3)c(c(-c3cccnc3COC)n4CC)CC(C)(C)COC(=O)[C@@H]3CCCN(N3)C2=O)C2CCCC2)C1 [US11566007, Example A55] | in the range around 55 nM |
| C=CC(=O)N1CC[C@@]2(CCN([C@H](C(=O)N[C@H]3Cc4cc(O)cc(c4)-c4ccc5c(c4)c(c(-c4ccccc4CCOC)n5CC)CC(C)(C)COC(=O)[C@@H]4CCCN(N4)C3=O)C(C)C)C2=O)C1 [US11566007, Example A68] | in the range around 550 nM |
| C=CC(=O)N1C[C@H](C)[C@H](C(=O)N(C)[C@H](C(=O)N[C@H]2Cc3cc(O)cc(c3)-c3ccc4c(c3)c(c(-c3ccccc3CN(C)C)n4CC)CC(C)(C)COC(=O)[C@@H]3CCCN(N3)C2=O)C(C)C)C1 [US11566007, Example A52] | in the range around 55 nM |
| C=CC(=O)N1CC[C@H](C(=O)N(C)[C@H](C(=O)N[C@H]2Cc3cc(O)cc(c3)-c3ccc4c(c3)c(c(-c3cccc(CN(C)C)c3)n4CC)CC(C)(C)COC(=O)[C@@H]3CCCN(N3)C2=O)C(C)C)C1 [US11566007, Example A30] | in the range around 550 nM |
| C=CC(=O)N1CC[C@H](C(=O)N(C)[C@H](C(=O)N[C@H]2Cc3cc(O)cc(c3)-c3ccc4c(c3)c(c(-c3cncc(CN(C)C)c3)n4CC)CC(C)(C)COC(=O)[C@@H]3CCCN(N3)C2=O)C(C)C)C1 [US11566007, Example A73] | in the range around 550 nM |
| C=CC(=O)N1C[C@H](C)[C@H](C(=O)N(C)[C@H](C(=O)N[C@H]2Cc3cc(O)cc(c3)-c3ccc4c(c3)c(c(-c3cccnc3COC)n4CC)CC(C)(C)COC(=O)[C@@H]3CCCN(N3)C2=O)C2CCCC2)C1 [US11566007, Example A57] | in the range around 55 nM |
| C=CC(=O)N1CC[C@H](C(=O)N(C)[C@H](C(=O)N[C@H]2Cc3cc(OC(=O)CN)cc(c3)-c3ccc4c(c3)c(c(-c3ccccc3CCOC)n4CC)CC(C)(C)COC(=O)[C@@H]3CCCN(N3)C2=O)C(C)C)C1 [US11566007, Example A8] | in the range around 550 nM |
| C=CC(=O)N1CC[C@H](C(=O)N(C)[C@H](C(=O)N[C@H]2Cc3cc(OC(=O)CCN4CCN(C)CC4)cc(c3)-c3ccc4c(c3)c(c(-c3ccccc3CCOC)n4CC)CC(C)(C)COC(=O)[C@@H]3CCCN(N3)C2=O)C(C)C)C1 [US11566007, Example A7] | in the range around 550 nM |
| C=CC(=O)N1CC[C@H](C(=O)N(C)[C@H](C(=O)N[C@H]2Cc3cc(O)cc(c3)-c3ccc4c(c3)c(c(-c3cncc(C#N)c3)n4CC)CC(C)(C)COC(=O)[C@@H]3CCCN(N3)C2=O)C(C)C)C1 [US11566007, Example A62] | in the range around 550 nM |
| CCn1c(-c2ccccc2CN(C)C)c2c3cc(ccc31)-c1cc(O)cc(c1)C[C@H](NC(=O)[C@H](C(C)C)N(C)C(=O)c1ccc(NC(=O)/C=C/CN(C)C)cn1)C(=O)N1CCC[C@H](N1)C(=O)OCC(C)(C)C2 [US11566007, Example A46] | in the range around 550 nM |
| C=CC(=O)N1CCC(F)(C(=O)N(C)[C@H](C(=O)N[C@H]2Cc3cc(O)cc(c3)-c3ccc4c(c3)c(c(-c3ccccc3CN(C)C)n4CC)CC(C)(C)COC(=O)[C@@H]3CCCN(N3)C2=O)C(C)C)CC1 [US11566007, Example A20] | in the range around 55 nM |
| C=CC(=O)N1CC[C@H](C(=O)N(C)[C@H](C(=O)N[C@H]2Cc3cc(O)cc(c3)-c3ccc4c(c3)c(c(-c3ccccc3[C@@H](C)OC)n4CC)CC(C)(C)COC(=O)[C@@H]3CCCN(N3)C2=O)C(C)C)C1 [US11566007, Example A29] | in the range around 55 nM |
| C=CC(=O)N1CC[C@H](C(=O)N(C)[C@H](C(=O)N[C@H]2Cc3cc(O)cc(c3)-c3ccc4c(c3)c(c(-c3ccc(CN5CC[C@@H](O)C5)cc3)n4CC)CC(C)(C)COC(=O)[C@@H]3CCCN(N3)C2=O)C(C)C)C1 [US11566007, Example A1] | in the range around 550 nM |
| C=CC(=O)N1CC[C@@]2(CCCN([C@H](C(=O)N[C@H]3Cc4cc(O)cc(c4)-c4ccc5c(c4)c(c(-c4ccccc4CCOC)n5CC)CC(C)(C)COC(=O)[C@@H]4CCCN(N4)C3=O)C(C)C)C2=O)C1 [US11566007, Example A63] | in the range around 550 nM |

These molecules were tested against GTPase NRas [G12C] (Homo sapiens, UniProt P01111, G12C) (assay: Biochemical Assay).
Sequence of GTPase NRas [G12C] (P01111 whole entry G12C): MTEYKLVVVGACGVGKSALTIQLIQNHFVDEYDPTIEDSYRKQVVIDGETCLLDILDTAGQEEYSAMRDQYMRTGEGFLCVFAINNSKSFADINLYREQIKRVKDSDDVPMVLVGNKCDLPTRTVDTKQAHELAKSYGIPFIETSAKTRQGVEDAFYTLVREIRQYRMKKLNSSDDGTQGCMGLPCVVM

| Structure (SMILES) | IC50 |
| --- | --- |
| C=CC(=O)N1CC[C@H](C(=O)N(C)[C@H](C(=O)N[C@H]2Cc3cccc(c3)-c3ccc4c(c3)c(c(-c3ccccc3CCOC)n4CC)CC(C)(C)COC(=O)[C@@H]3CCCN(N3)C2=O)C(C)C)C1 [US11566007, Example A24] | in the range around 5500 nM |
